Source: patent US20180153807A1, “COMPOSITIONS AND METHODS FOR TREATING MYCOBACTERIA INFECTIONS AND LUNG DISEASE” (priority 2015, published 2018)
Where two headings read alike, the source gives them in different places.

Tests used:
[1] = system: Mycobacterium avium complex (MAC) 104 biofilm; assay: Cochleate treatment of Mycobacteria biofilm on polarized A549 cells in transwell; assay type: cell-based; details: delivered daily to bottom well, MAC 104 biofilm on A549 cells
Method: A549 alveolar epithelial cells were cultured in a transwell system. A549 cells became polarized after 6 days and integrity. Bacteria were seeded on the top (apical surface) of the cells. Seven days were allowed for biofilm formation.
Mycobacterium avium complex (MAC) 104 (10^5 bacteria) infection inoculum.
0.1 ml of the different treatments were delivered to the bottom well daily. The basolateral surface (bottom) of the cells were immersed in the tissue culture medium present in the bottom well. Three replicas per experimental group were tested in two different experiments.
Biofilm and epithelial cells were lysed and diluted and plated onto 7H10.

[2] = system: Mycobacterium avium complex (MAC)
Method: C57 BL/6 mice were infected with 8.3×10^6 of Mycobacterium avium complex (MAC) intranasally and the infection was allowed to establish for 7 days. Then baseline bacterial load was determined in 10 mice and treatment protocols were initiated. Mice were treated daily for 4 weeks (orally or with intraperitonal injection of free amikacin). Mice were harvested and lung and spleens were removed, homogenized and plated to determine the bacterial load. Experimental groups had 12 mice each.

[3] = rats; cited from earlier work

## NCC[C@H](O)C(=O)N[C@@H]1C[C@H](N)[C@@H](O[C@H]2O[C@H](CN)[C@@H](O)[C@H](O)[C@H]2O)[C@H](O)[C@H]1O[C@H]1O[C@H](CO)[C@@H](O)[C@H](N)[C@H]1O [Free amikacin, Amikacin]
[1]; 20 μg/ml
  CFU/bacteria, 14 days: 9.1 ± 0.4 × 10^5 CFU
[1]; 100 μg/ml
  CFU/bacteria, 14 days: 3.2 ± 0.3 × 10^5 CFU
[2]; IP 100 mg/Kg, daily for 4 weeks, 100 mg/kg
  bacterial load: 5.6 ± 0.4 × 10^3^(2)(3) CFU
[2]; IP 100 mg/Kg, daily for 4 weeks, listed as AMK, 100 mg/kg
  bacterial load: 5.6×10^3 CFU
[2]; daily for 4 weeks
  kind of effect observed (in words): bactericidal
[2]; mouse, in vivo
  toxicity, histopathology including kidneys (in words): no toxicity was observed
[2]; oral, daily for 4 weeks, dose not given
  bacterial load: 2.2 ± 0.5 × 10^5^(1) CFU
[3]
  published NOAEL for injected (intravenous) amikacin: 100 mg/kg
